# Laboratory results: US20110305637A1, “RADIOLABELLED PDE10 LIGANDS” (Janssen Pharmaceutica N.V., priority 2009, published 2011)
# Molecular target: T1, PDE10A (Rattus norvegicus, UniProt Q9QYJ6)
# T1 construct: from tissue; host or cells: brain (striatum) of living male Wistar rats, in vivo microPET
# T1 sequence (Q9QYJ6 1-794): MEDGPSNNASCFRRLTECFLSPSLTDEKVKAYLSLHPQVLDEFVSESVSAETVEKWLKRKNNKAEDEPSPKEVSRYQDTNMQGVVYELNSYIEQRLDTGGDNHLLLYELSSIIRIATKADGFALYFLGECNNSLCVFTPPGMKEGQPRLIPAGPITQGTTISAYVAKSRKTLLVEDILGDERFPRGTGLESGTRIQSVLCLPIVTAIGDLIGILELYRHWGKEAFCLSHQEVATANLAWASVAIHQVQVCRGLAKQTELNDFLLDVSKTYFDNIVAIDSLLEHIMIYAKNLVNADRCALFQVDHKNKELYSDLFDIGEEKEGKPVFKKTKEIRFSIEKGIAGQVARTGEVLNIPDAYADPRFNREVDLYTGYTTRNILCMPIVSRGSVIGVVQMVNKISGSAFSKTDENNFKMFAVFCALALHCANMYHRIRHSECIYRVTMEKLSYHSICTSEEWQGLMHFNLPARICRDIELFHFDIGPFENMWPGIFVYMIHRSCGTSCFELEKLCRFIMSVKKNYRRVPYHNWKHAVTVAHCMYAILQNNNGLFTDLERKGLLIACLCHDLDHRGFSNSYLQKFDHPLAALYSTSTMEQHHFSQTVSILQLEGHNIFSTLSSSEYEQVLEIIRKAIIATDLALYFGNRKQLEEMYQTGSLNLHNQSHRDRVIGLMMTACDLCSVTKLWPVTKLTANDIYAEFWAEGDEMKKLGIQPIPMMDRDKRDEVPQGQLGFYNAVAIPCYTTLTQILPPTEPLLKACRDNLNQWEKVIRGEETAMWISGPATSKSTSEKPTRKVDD
# Experiment: microPET imaging study
# Assay type: in vivo
# Procedure: (§1) Imaging experiments were performed on a Focus™ 220 microPET scanner (Concorde Microsystems, Knoxville, Tenn., USA) using male Wistar rats with body weight between 200 and 300 g. Animals were injected with about 74 MBq of high specific activity formulation of [^18F]B-1 via tail vein under anesthesia (2.5% Isoflurane in O2 at 1 L/min flow rate). Dynamic scans of 90 min were acquired in List mode. Acquisition data were Fourier rebinned in different time frames (4×15 s, 4×1 min, 5×3 min, 14×5 min) and reconstructed with Filtered Back Projection (FBP). An average image (frame 1 to 27) of the reconstructed data was spatially normalized to an in-house created [^11C]raclopride template of the rat brain in Paxinos coordinates. The affine transformation was then used to normalize all time frames of the dynamic dataset to allow automated and symmetric volumes of interest (VOIs) analyses. Time-activity curves (TAC) were generated for striatum, cortex and cerebellum for each individual scan, using PMOD software (v 3.0, PMOD Technologies Ltd., Zurich, Switzerland). The radioactivity concentration in the different brain regions was expressed as standardized uptake value (SUV) as a function of time p.i. of the radiotracer by normalization for body weight of the animal and injected dose. Since PDE10A is expressed at low level in the cerebellum, binding potential (BP) values were calculated using the multilinear reference tissue model developed by Ichise et al. with the cerebellum considered as reference, using the same software (PMOD). Rats (n=5) were used for baseline imaging of which 3 animals were used in pretreatment studies in which the non-radioactive analogue B-1 was administered subcutaneously at a dose of 5 mg/kg at 30 min prior to the radiotracer injection.
# Imaging experiments were performed on a Focus™ 220 microPET scanner (Concorde Microsystems, Knoxville, Tenn., USA) using male Wistar rats with body weight between 350 and 480 g. For the baseline microPET study, rats (n=2) were injected with about 74 MBq of high specific activity formulation of [^18F]B-2 via tail vein under anesthesia (2.5% Isoflurane in O2 at 1 L/min flow rate). For the pretreatment experiment, the radioactivity dose was reduced to about 37 MBq. Pretreatment was done by administering the non-radioactive analogue B-2 subcutaneously at a dose of 2.5 mg/kg at 60 min prior to the tracer injection (n=1).
# as §1, with “Dynamic” for “Imaging experiments were performed on a Focus™ 220 microPET scanner (Concorde Microsystems, Knoxville, Tenn., USA) using male Wistar rats with body weight between 200 and 300 g. Animals were injected with about 74 MBq of high specific activity formulation of [^18F]B-1 via tail vein under anesthesia (2.5% Isoflurane in O2 at 1 L/min flow rate). Dynamic”, “120” for “90”, “8×5 min, 10×6” for “14×5”, “31)” for “27)”, “(PMOD).” for “(PMOD). Rats (n=5) were used for baseline imaging of which 3 animals were used in pretreatment studies in which the non-radioactive analogue B-1 was administered subcutaneously at a dose of 5 mg/kg at 30 min prior to the radiotracer injection.”
structure (smiles),measurement,setting,value
[18F]CCCn1cc(-c2ccncc2)c(-c2ccc(OCc3ccc4ccccc4n3)cc2)n1 [[^18F]B-1],binding potential (BP) value after non-radioactive analogue,"B-1, 5 mg/kg s.c., 30 min prior to tracer",0.11±0.10
same,time at which peak tissue concentrations in the brain were reached,baseline,within one minute
same,Peak striatum-to-cerebellum ratio,"baseline, at 15 min post injection",2.7
same,striatum-to-cerebellum ratio,"baseline, until about 35 min post injection",higher than 2.5
same,binding potential (BP) value at baseline,"baseline, cerebellum as reference",0.58±0.17
same,reduction in BP values with pretreatment compared to baseline,"non-radioactive B-1, 5 mg/kg s.c., 30 min prior",about 80%
same,striatum-to-cerebellum ratio after pre-treatment,"pre-treated with non-radioactive B-1, 5 mg/kg s.c., 30 min prior",1.5
